System: Pseudomonas aeruginosa PAM1001
Test: checkerboard assay (broth microdilution): levofloxacin MIC in presence of efflux pump inhibitor
Type: cell-based
Outline: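 Reduction of levofloxacin MIC by an efflux pump inhibitor measured against Pseudomonas aeruginosa PAM1001. Each microdilution well held a unique combination of levofloxacin and inhibitor (max 40 μg/mL) in MHB, inoculum 5×10^5 CFU/mL. Readout after 20 h, 35° C: OD650 plus visual inspection.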

CC(C)C[C@@H](NC(=O)[C@H]1C[C@H](CN)CN1)C(=O)Nc1cnc2ccccc2c1 [Compound M34, (2R,4R)-4-(Aminomethyl)-N-[(1R)-3-methyl-1-(3-quinolylcarbamoly)butyl]-2-pyrrolidinecarboxamide]
Levofloxacin MIC Against P. aerugiuosa PAM1001 in Presence of Efflux Pump Inhibitor (EPI), Minimum Inhibitory Concentration (EPI Conc. 0 μg/mL): 4 µg/mL | Levofloxacin MIC Against P. aerugiuosa PAM1001 in Presence of Efflux Pump Inhibitor (EPI), Minimum Inhibitory Concentration (EPI Conc. 0.625 μg/mL): 4 µg/mL | Levofloxacin MIC Against P. aerugiuosa PAM1001 in Presence of Efflux Pump Inhibitor (EPI), Minimum Inhibitory Concentration (EPI Conc. 1.25 μg/mL): 4 µg/mL | Levofloxacin MIC Against P. aerugiuosa PAM1001 in Presence of Efflux Pump Inhibitor (EPI), Minimum Inhibitory Concentration (EPI Conc. 2.5 μg/mL): 4 µg/mL | Levofloxacin MIC Against P. aerugiuosa PAM1001 in Presence of Efflux Pump Inhibitor (EPI), Minimum Inhibitory Concentration (EPI Conc. 5 μg/ mL): 4 µg/mL | Levofloxacin MIC Against P. aerugiuosa PAM1001 in Presence of Efflux Pump Inhibitor (EPI), Minimum Inhibitory Concentration (EPI Conc. 10 μg/mL): 2 µg/mL | Levofloxacin MIC Against P. aerugiuosa PAM1001 in Presence of Efflux Pump Inhibitor (EPI), Minimum Inhibitory Concentration (EPI Conc. 20 μg/mL): 1 µg/mL | Levofloxacin MIC Against P. aerugiuosa PAM1001 in Presence of Efflux Pump Inhibitor (EPI), Minimum Inhibitory Concentration (EPI Conc. 40 μg/mL): 0.5 µg/mL

NC[C@@H]1CN[C@@H](C(=O)N[C@H](CCc2ccccc2)C(=O)Nc2cnc3ccc(F)cc3c2)C1 [Compound M35, (2R,4R)-4-(Aminomethyl)-N-[(1R)-3-pheyl-1-(6-fluoro-3-quinolylcarbamoyl)propyl]-2-pyrrolidinecarboxamide]
Levofloxacin MIC Against P. aerugiuosa PAM1001 in Presence of Efflux Pump Inhibitor (EPI), Minimum Inhibitory Concentration (EPI Conc. 0 μg/mL): 4 µg/mL | Levofloxacin MIC Against P. aerugiuosa PAM1001 in Presence of Efflux Pump Inhibitor (EPI), Minimum Inhibitory Concentration (EPI Conc. 0.625 μg/mL): 4 µg/mL | Levofloxacin MIC Against P. aerugiuosa PAM1001 in Presence of Efflux Pump Inhibitor (EPI), Minimum Inhibitory Concentration (EPI Conc. 1.25 μg/mL): 4 µg/mL | Levofloxacin MIC Against P. aerugiuosa PAM1001 in Presence of Efflux Pump Inhibitor (EPI), Minimum Inhibitory Concentration (EPI Conc. 2.5 μg/mL): 4 µg/mL | Levofloxacin MIC Against P. aerugiuosa PAM1001 in Presence of Efflux Pump Inhibitor (EPI), Minimum Inhibitory Concentration (EPI Conc. 5 μg/ mL): 2 µg/mL | Levofloxacin MIC Against P. aerugiuosa PAM1001 in Presence of Efflux Pump Inhibitor (EPI), Minimum Inhibitory Concentration (EPI Conc. 10 μg/mL): 0.5 µg/mL | Levofloxacin MIC Against P. aerugiuosa PAM1001 in Presence of Efflux Pump Inhibitor (EPI), Minimum Inhibitory Concentration (EPI Conc. 20 μg/mL): 0.03 µg/mL | Levofloxacin MIC Against P. aerugiuosa PAM1001 in Presence of Efflux Pump Inhibitor (EPI), Minimum Inhibitory Concentration (EPI Conc. 40 μg/mL): 0.03 µg/mL

NC[C@@H]1CN[C@@H](C(=O)N[C@H](CCc2ccccc2)C(=O)Nc2cc(Cl)ccc2O)C1 [Compound M39, (2R,4R)-4-(Aminomethyl)-N-[(1R)-3-pheyl-1-(5-chloro-2-hydroxyphenylcarbamoyl)propyl]-2-pyrrolidinecarboxamide]
Levofloxacin MIC Against P. aerugiuosa PAM1001 in Presence of Efflux Pump Inhibitor (EPI), Minimum Inhibitory Concentration (EPI Conc. 0 μg/mL): 4 µg/mL | Levofloxacin MIC Against P. aerugiuosa PAM1001 in Presence of Efflux Pump Inhibitor (EPI), Minimum Inhibitory Concentration (EPI Conc. 0.625 μg/mL): 4 µg/mL | Levofloxacin MIC Against P. aerugiuosa PAM1001 in Presence of Efflux Pump Inhibitor (EPI), Minimum Inhibitory Concentration (EPI Conc. 1.25 μg/mL): 2 µg/mL | Levofloxacin MIC Against P. aerugiuosa PAM1001 in Presence of Efflux Pump Inhibitor (EPI), Minimum Inhibitory Concentration (EPI Conc. 2.5 μg/mL): 0.5 µg/mL | Levofloxacin MIC Against P. aerugiuosa PAM1001 in Presence of Efflux Pump Inhibitor (EPI), Minimum Inhibitory Concentration (EPI Conc. 5 μg/ mL): 0.25 µg/mL | Levofloxacin MIC Against P. aerugiuosa PAM1001 in Presence of Efflux Pump Inhibitor (EPI), Minimum Inhibitory Concentration (EPI Conc. 10 μg/mL): 0.015 µg/mL | Levofloxacin MIC Against P. aerugiuosa PAM1001 in Presence of Efflux Pump Inhibitor (EPI), Minimum Inhibitory Concentration (EPI Conc. 20 μg/mL): 0.015 µg/mL | Levofloxacin MIC Against P. aerugiuosa PAM1001 in Presence of Efflux Pump Inhibitor (EPI), Minimum Inhibitory Concentration (EPI Conc. 40 μg/mL): 0.015 µg/mL

NCC(=O)N[C@@H]1CN[C@@H](C(=O)NC(Cc2ccccc2)C(=O)Nc2cnc3ccccc3c2)C1 (stereo partly drawn) [Compound M41, (2R,4S0-4-(2-Aminoacetamideo)-N-(2-phenylethyl)-N-(3-quinolylcarbamoyl)ethyl]-2-pyrrolidinecarboxamide]
Levofloxacin MIC Against P. aerugiuosa PAM1001 in Presence of Efflux Pump Inhibitor (EPI), Minimum Inhibitory Concentration (EPI Conc. 0 μg/mL): 4 µg/mL | Levofloxacin MIC Against P. aerugiuosa PAM1001 in Presence of Efflux Pump Inhibitor (EPI), Minimum Inhibitory Concentration (EPI Conc. 0.625 μg/mL): 4 µg/mL | Levofloxacin MIC Against P. aerugiuosa PAM1001 in Presence of Efflux Pump Inhibitor (EPI), Minimum Inhibitory Concentration (EPI Conc. 1.25 μg/mL): 2 µg/mL | Levofloxacin MIC Against P. aerugiuosa PAM1001 in Presence of Efflux Pump Inhibitor (EPI), Minimum Inhibitory Concentration (EPI Conc. 2.5 μg/mL): 2 µg/mL | Levofloxacin MIC Against P. aerugiuosa PAM1001 in Presence of Efflux Pump Inhibitor (EPI), Minimum Inhibitory Concentration (EPI Conc. 5 μg/ mL): 0.25 µg/mL | Levofloxacin MIC Against P. aerugiuosa PAM1001 in Presence of Efflux Pump Inhibitor (EPI), Minimum Inhibitory Concentration (EPI Conc. 10 μg/mL): 0.008 µg/mL | Levofloxacin MIC Against P. aerugiuosa PAM1001 in Presence of Efflux Pump Inhibitor (EPI), Minimum Inhibitory Concentration (EPI Conc. 20 μg/mL): 0.008 µg/mL | Levofloxacin MIC Against P. aerugiuosa PAM1001 in Presence of Efflux Pump Inhibitor (EPI), Minimum Inhibitory Concentration (EPI Conc. 40 μg/mL): 0.008 µg/mL

NCC(=O)N[C@H]1CN[C@@H](C(=O)N(CCc2ccccc2)CC(=O)Nc2cnc3ccccc3c2)C1 [Compound M46]
Levofloxacin MIC Against P. aerugiuosa PAM1001 in Presence of Efflux Pump Inhibitor (EPI), Minimum Inhibitory Concentration (EPI Conc. 0 μg/mL): 4 µg/mL | Levofloxacin MIC Against P. aerugiuosa PAM1001 in Presence of Efflux Pump Inhibitor (EPI), Minimum Inhibitory Concentration (EPI Conc. 0.625 μg/mL): 4 µg/mL | Levofloxacin MIC Against P. aerugiuosa PAM1001 in Presence of Efflux Pump Inhibitor (EPI), Minimum Inhibitory Concentration (EPI Conc. 1.25 μg/mL): 4 µg/mL | Levofloxacin MIC Against P. aerugiuosa PAM1001 in Presence of Efflux Pump Inhibitor (EPI), Minimum Inhibitory Concentration (EPI Conc. 2.5 μg/mL): 4 µg/mL | Levofloxacin MIC Against P. aerugiuosa PAM1001 in Presence of Efflux Pump Inhibitor (EPI), Minimum Inhibitory Concentration (EPI Conc. 5 μg/ mL): 4 µg/mL | Levofloxacin MIC Against P. aerugiuosa PAM1001 in Presence of Efflux Pump Inhibitor (EPI), Minimum Inhibitory Concentration (EPI Conc. 10 μg/mL): 4 µg/mL | Levofloxacin MIC Against P. aerugiuosa PAM1001 in Presence of Efflux Pump Inhibitor (EPI), Minimum Inhibitory Concentration (EPI Conc. 20 μg/mL): 1 µg/mL | Levofloxacin MIC Against P. aerugiuosa PAM1001 in Presence of Efflux Pump Inhibitor (EPI), Minimum Inhibitory Concentration (EPI Conc. 40 μg/mL): 0.5 µg/mL

C[C@@H](N)C(=O)N[C@@H]1CN[C@@H](C(=O)N(CCC(C)(C)C)CC(=O)Nc2cnc3ccccc3c2)C1 [Compound M47]
Levofloxacin MIC Against P. aerugiuosa PAM1001 in Presence of Efflux Pump Inhibitor (EPI), Minimum Inhibitory Concentration (EPI Conc. 0 μg/mL): 4 µg/mL | Levofloxacin MIC Against P. aerugiuosa PAM1001 in Presence of Efflux Pump Inhibitor (EPI), Minimum Inhibitory Concentration (EPI Conc. 0.625 μg/mL): 4 µg/mL | Levofloxacin MIC Against P. aerugiuosa PAM1001 in Presence of Efflux Pump Inhibitor (EPI), Minimum Inhibitory Concentration (EPI Conc. 1.25 μg/mL): 4 µg/mL | Levofloxacin MIC Against P. aerugiuosa PAM1001 in Presence of Efflux Pump Inhibitor (EPI), Minimum Inhibitory Concentration (EPI Conc. 2.5 μg/mL): 4 µg/mL | Levofloxacin MIC Against P. aerugiuosa PAM1001 in Presence of Efflux Pump Inhibitor (EPI), Minimum Inhibitory Concentration (EPI Conc. 5 μg/ mL): 4 µg/mL | Levofloxacin MIC Against P. aerugiuosa PAM1001 in Presence of Efflux Pump Inhibitor (EPI), Minimum Inhibitory Concentration (EPI Conc. 10 μg/mL): 4 µg/mL | Levofloxacin MIC Against P. aerugiuosa PAM1001 in Presence of Efflux Pump Inhibitor (EPI), Minimum Inhibitory Concentration (EPI Conc. 20 μg/mL): 2 µg/mL | Levofloxacin MIC Against P. aerugiuosa PAM1001 in Presence of Efflux Pump Inhibitor (EPI), Minimum Inhibitory Concentration (EPI Conc. 40 μg/mL): 0.03 µg/mL

CC(C)C[C@H](COc1ccc2ccccc2c1)NC(=O)[C@H]1C[C@H](NC(=O)CN)CN1 [Compound M49, (2R,4S)-4-(2-Aminoacetamideo)-N-[(1R)-3-methyl-1-[(2-naphthyloxy)methyl]butyl]-2-pyrrolidinecarboxamide]
Levofloxacin MIC Against P. aerugiuosa PAM1001 in Presence of Efflux Pump Inhibitor (EPI), Minimum Inhibitory Concentration (EPI Conc. 0 μg/mL): 4 µg/mL | Levofloxacin MIC Against P. aerugiuosa PAM1001 in Presence of Efflux Pump Inhibitor (EPI), Minimum Inhibitory Concentration (EPI Conc. 0.625 μg/mL): 4 µg/mL | Levofloxacin MIC Against P. aerugiuosa PAM1001 in Presence of Efflux Pump Inhibitor (EPI), Minimum Inhibitory Concentration (EPI Conc. 1.25 μg/mL): 4 µg/mL | Levofloxacin MIC Against P. aerugiuosa PAM1001 in Presence of Efflux Pump Inhibitor (EPI), Minimum Inhibitory Concentration (EPI Conc. 2.5 μg/mL): 4 µg/mL | Levofloxacin MIC Against P. aerugiuosa PAM1001 in Presence of Efflux Pump Inhibitor (EPI), Minimum Inhibitory Concentration (EPI Conc. 5 μg/ mL): 4 µg/mL | Levofloxacin MIC Against P. aerugiuosa PAM1001 in Presence of Efflux Pump Inhibitor (EPI), Minimum Inhibitory Concentration (EPI Conc. 10 μg/mL): 1 µg/mL | Levofloxacin MIC Against P. aerugiuosa PAM1001 in Presence of Efflux Pump Inhibitor (EPI), Minimum Inhibitory Concentration (EPI Conc. 20 μg/mL): 0.125 µg/mL | Levofloxacin MIC Against P. aerugiuosa PAM1001 in Presence of Efflux Pump Inhibitor (EPI), Minimum Inhibitory Concentration (EPI Conc. 40 μg/mL): 0.06 µg/mL

NCC(=O)N[C@H]1CN[C@H](C(=O)N[C@H](CCc2ccccc2)CSc2cnc3ccccc3c2)C1 [Compound M53, (2S,4R)-4-(2-Aminoacetamideo)-N-[(1R)-3-phenyl-1-[(3-quinolythio)methyl]propyl]-2-pyrrolidinecarboxamide]
Levofloxacin MIC Against P. aerugiuosa PAM1001 in Presence of Efflux Pump Inhibitor (EPI), Minimum Inhibitory Concentration (EPI Conc. 0 μg/mL): 4 µg/mL | Levofloxacin MIC Against P. aerugiuosa PAM1001 in Presence of Efflux Pump Inhibitor (EPI), Minimum Inhibitory Concentration (EPI Conc. 0.625 μg/mL): 4 µg/mL | Levofloxacin MIC Against P. aerugiuosa PAM1001 in Presence of Efflux Pump Inhibitor (EPI), Minimum Inhibitory Concentration (EPI Conc. 1.25 μg/mL): 4 µg/mL | Levofloxacin MIC Against P. aerugiuosa PAM1001 in Presence of Efflux Pump Inhibitor (EPI), Minimum Inhibitory Concentration (EPI Conc. 2.5 μg/mL): 4 µg/mL | Levofloxacin MIC Against P. aerugiuosa PAM1001 in Presence of Efflux Pump Inhibitor (EPI), Minimum Inhibitory Concentration (EPI Conc. 5 μg/ mL): 4 µg/mL | Levofloxacin MIC Against P. aerugiuosa PAM1001 in Presence of Efflux Pump Inhibitor (EPI), Minimum Inhibitory Concentration (EPI Conc. 10 μg/mL): 4 µg/mL | Levofloxacin MIC Against P. aerugiuosa PAM1001 in Presence of Efflux Pump Inhibitor (EPI), Minimum Inhibitory Concentration (EPI Conc. 20 μg/mL): 0.06 µg/mL | Levofloxacin MIC Against P. aerugiuosa PAM1001 in Presence of Efflux Pump Inhibitor (EPI), Minimum Inhibitory Concentration (EPI Conc. 40 μg/mL): 0.03 µg/mL
